Data reported in US12006289B2, “Potassium channel inhibitors” (Saniona A/S, priority 2019, dated 2024).
pIC50: −log10 of the molar value.

Molecular target: erythrocyte KCa3.1 channels (Homo sapiens (Human), UniProt O15554)
Test: Erythrocyte KCa3.1 assay
Assay type: cell-based
Conditions: human erythrocytes, A23187-activated, 37° C.; read-out: RBC K (in vitro) Human IC50
Experimental: Human blood was drawn from healthy human volunteers in a standard heparinized blood sampling vial (Vacutainer, Li/heparin, BD Bioscience, Plymouth, UK). The erythrocytes were packed by centrifugation, and the plasma and buffy coat were removed by aspiration. Erythrocytes were washed three times in the experimental salt solution and then stored at 0° C. until use. Blood samples from NMRI mice or from Wistar rats were treated similarly. The methodological principle is outlined in Macey et al. (1978) and further described in Strøbæk et al. (2013). Activation of the erythrocyte KCa3.1 channels were obtained by addition of the Ca^2+ ionophore A23187, which causes synchronized hyperpolarization, which is reported as a CCCP-mediated shift in the unbuffered extracellular pH of the erythrocyte suspension. Standard procedure: 3 mL unbuffered experimental salt solution (in mM: 2 KCl, 154 NaCl, 0.05 CaCl2) was heated to 37° C. with stirring. Packed erythrocytes were added (50 μL, final cytocrit 1.5%), and the extracellular pH (pHo) followed with a glass/calomel (pHG200-8/REF200, Radiometer, Denmark) electrode pair. CCCP (3 μL, final concentration 20 μM) was added followed by varying concentrations of test compounds (DMSO concentration constant). After pH stabilization at ˜7.2, A23187 (3 μL, final concentration 0.33 μM) was added to initiate the experiment. After the peak hyperpolarization was attained, the intracellular pH (pHi constant during the experiment) was found by haemolysing the erythrocytes via addition of 100 μL of Triton-X100.
The erythrocyte membrane potential, Vm, was calculated according to: Vm=−61.5 mV×(pHo−pHi) and the fractional remaining Ca^2+-activated K^+-conductance at the concentration C of blocker, fGK(C), was calculated from
[formula] where the K^+ equilibrium potential EK=−107 mV, the Cl^− equilibrium potential ECl=−12 mV and the Vm(0) and Vm(C) are the peak hyperpolarizations in the control and in the presence of a concentration of C of blocker respectively.
IC50 values for compounds were calculated from a plot of fGK(C) versus C by a fit to the Hill equation, using a custom program written in the IGOR-Pro software (WaveMetrics, Lake Oswego, OR, USA). All IC50-values are reported in μM.

Row | SMILES | pIC50
1 | COC(=O)N(CC(C)(C)NC(C)=O)C1(c2ccc(F)c(C(F)(F)F)c2)CC1 [[24], Methyl (2-acetamido-2-methylpropyl)(1-(4-fluoro-3-(trifluoromethyl)phenyl)cyclopropyl)carbamate] | 6.51
2 | CC(C)(N)CNC1(c2ccc(F)c(C(F)(F)F)c2)CC1 [[25], N1-(1-(4-fluoro-3-(trifluoromethyl)phenyl)cyclopropyl)-2-methylpropane-1,2-diamine] | 6.74
3 | COC(=O)N(CC1CCN1)C1(c2ccc(F)c(C(F)(F)F)c2)CC1 (stereo not shown) [[26], Methyl (azetidin-2-ylmethyl)(1-(4-fluoro-3-(trifluoromethyl)phenyl)cyclopropyl)carbamate] | 6.68
4 | COC(=O)N(C[C@@H]1CCCN1)C1(c2ccc(F)c(OC(F)(F)F)c2)CC1 [[28], Methyl (S)-(1-(4-fluoro-3-(trifluoromethoxy)phenyl)cyclopropyl)(pyrrolidin-2-ylmethyl)carbamate] | 7.06
5 | COC(=O)N(C[C@H]1CCCN1)C1(c2ccc(F)c(OC(F)(F)F)c2)CC1 [[29], Methyl (R)-(1-(4-fluoro-3-(trifluoromethoxy)phenyl)cyclopropyl)(pyrrolidin-2-ylmethyl)carbamate] | 6.48
6 | COC(=O)N(CC1CCN1C)C1(c2ccc(F)c(C(F)(F)F)c2)CC1 (stereo not shown) [[30], Methyl (1-(4-fluoro-3-(trifluoromethyl)phenyl)cyclopropyl)((1-methylazetidin-2-yl)methyl)carbamate] | 6.77
7 | COC(=O)N(CC1CCN1)C1(c2ccc(F)c(OC(F)(F)F)c2)CC1 (stereo not shown) [[32], Methyl (azetidin-2-ylmethyl)(1-(4-fluoro-3-(trifluoromethoxy)phenyl)cyclopropyl)carbamate] | 6.57
8 | COC(=O)N(CC(C)(C)NO)C1(c2ccc(F)c(C(F)(F)F)c2)CC1 [[33], Methyl (1-(4-fluoro-3-(trifluoromethyl)phenyl)cyclopropyl)(2-(hydroxyamino)-2-methylpropyl)carbamate] | 6.92
9 | CCOC(=O)N(C[C@@H]1CCCN1)C1(c2ccc(F)c(C(F)(F)F)c2)CC1 [[34], Ethyl (S)-(1-(4-fluoro-3-(trifluoromethyl)phenyl)cyclopropyl)(pyrrolidin-2-ylmethyl)carbamate] | 7.28
10 | CN1CCC[C@H]1CN(C1(c2ccc(F)c(C(F)(F)F)c2)CC1)S(C)(=O)=O [[37], (S)—N-(1-(4-fluoro-3-(trifluoromethyl)phenyl)cyclopropyl)-N-((1-methylpyrrolidin-2-yl)methyl)methanesulfonamide] | 6.85
11 | CCOC(=O)N(C[C@H]1CCCN1)C1(c2ccc(F)c(C(F)(F)F)c2)CC1 [[38], Ethyl (R)-(1-(4-fluoro-3-(trifluoromethyl)phenyl)cyclopropyl)(pyrrolidin-2-ylmethyl)carbamate] | 6.92
12 | COC(=O)N(C[C@@H]1COCCN1)C1(c2ccc(F)c(C(F)(F)F)c2)CC1 [[39], Methyl (R)-(1-(4-fluoro-3-(trifluoromethyl)phenyl)cyclopropyl)(morpholin-3-ylmethyl) carbamate] | 6.38
13 | COC(=O)N(C[C@@H]1COCCN1C)C1(c2ccc(F)c(C(F)(F)F)c2)CC1 [[40], Methyl (R)-(1-(4-fluoro-3-(trifluoromethyl)phenyl)cyclopropyl)((4-methylmorpholin-3-yl)methyl)carbamate] | 6.57
14 | CS(=O)(=O)N(C[C@H]1CCCN1)C1(c2ccc(F)c(C(F)(F)F)c2)CC1 [[41], (R)—N-(1-(4-fluoro-3-(trifluoromethyl)phenyl)cyclopropyl)-N-(pyrrolidin-2-ylmethyl) methane sulfonamide] | 6.42
15 | COC(=O)N(C[C@H]1COCCN1C)C1(c2ccc(F)c(C(F)(F)F)c2)CC1 [[43], Methyl (S)-(1-(4-fluoro-3-(trifluoromethyl)phenyl)cyclopropyl)((4-methylmorpholin-3-yl)methyl)carbamate] | 6.54
16 | O=C(OC1CC1)N(C[C@@H]1CCCN1)C1(c2ccc(F)c(C(F)(F)F)c2)CC1 [[45], Cyclopropyl (S)-(1-(4-fluoro-3-(trifluoromethyl)phenyl)cyclopropyl)(pyrrolidin-2-ylmethyl)carbamate] | 6.74
